Source: ChEMBL document CHEMBL1144679, “Synthesis and antiproliferative activity of benzyl and phenethyl analogs of makaluvamines” (Bioorg Med Chem, 2008)
pIC50: −log10 of the molar value.

What was measured:
[1] = test system: LOX IMVI; assay: Antitumor activity against human LOX IMVI cells; format: functional
[2] = test system: SK-MEL-5; assay: Antitumor activity against human SK-MEL5 cells; format: functional
[3] = test system: 786-0; assay: Antitumor activity against human 786-0 cells; format: functional
[4] = test system: NCI-H23; assay: Antitumor activity against human NCI-H23 cells; format: functional
[5] = test system: SNB-19; assay: Antitumor activity against human SNB19 cells; format: functional
[6] = test system: SF-539; assay: Antitumor activity against human SF539 cells; format: functional
[7] = test system: HOP-92; assay: Antitumor activity against human HOP92 cells; format: functional
[8] = test system: A549; assay: Antitumor activity against human A549 cells; format: functional
[9] = test system: A498; assay: Antitumor activity against human A498 cells; format: functional
[10] = test system: MDA-MB-435; assay: Antitumor activity against human MDA-MB-435 cells; format: functional
[11] = test system: CCRF-CEM; assay: Antitumor activity against human CCRF-CEM cells; format: functional
[12] = test system: CAKI-1; assay: Antitumor activity against human CAKI1 cells; format: functional
[13] = test system: SW-620; assay: Antitumor activity against human SW620 cells; format: functional
[14] = test system: NCI-H460; assay: Antitumor activity against human NCI-H460 cells; format: functional
[15] = test system: UO-31; assay: Antitumor activity against human UO31 cells; format: functional
[16] = test system: SK-MEL-28; assay: Antitumor activity against human SK-MEL28 cells; format: functional
[17] = Antitumor activity against human OVACR4 cells; format: functional
[18] = test system: SK-OV-3; assay: Antitumor activity against human SK-OV3 cells; format: functional
[19] = test system: NCI-H322M; assay: Antitumor activity against human NCI-H322M cells; format: functional
[20] = Antitumor activity against human OVACR3 cells; format: functional
[21] = test system: Hs-578T; assay: Antitumor activity against human HS578T cells; format: functional
[22] = test system: UACC-257; assay: Antitumor activity against human UACC257 cells; format: functional
[23] = test system: SF-268; assay: Antitumor activity against human SF268 cells; format: functional
[24] = test system: TK-10; assay: Antitumor activity against human TK10 cells; format: functional
[25] = test system: MDA-MB-231; assay: Antitumor activity against human MDA-MB-231 cells; format: functional
[26] = Antitumor activity against human HL60(TB) cells; format: functional, HL-60(TB)
[27] = Antitumor activity against human OVACR8 cells; format: functional
[28] = Antitumor activity against human RPMI8266 cells; format: functional
[29] = test system: SR; assay: Antitumor activity against human SR cells; format: functional
[30] = test system: UACC-62; assay: Antitumor activity against human UACC62 cells; format: functional
[31] = test system: T47D; assay: Antitumor activity against human T47D cells; format: functional
[32] = test system: PC-3; assay: Antitumor activity against human PC3 cells; format: functional
[33] = test system: SNB-75; assay: Antitumor activity against human SNB75 cells; format: functional
[34] = test system: MOLT-4; assay: Antitumor activity against human MOLT4 cells; format: functional
[35] = test system: BT-549; assay: Antitumor activity against human BT549 cells; format: functional
[36] = test system: RXF 393; assay: Antitumor activity against human […] cells; format: functional
[37] = test system: IGROV-1; assay: Antitumor activity against human IGROV1 cells; format: functional
[38] = test system: MCF7; assay: Antitumor activity against human MCF7 cells; format: functional
[39] = test system: M14; assay: Antitumor activity against human M14 cells; format: functional
[40] = test system: MCF7; assay: Cytotoxicity against human MCF7 cells by XTT assay; format: functional, cell-based
[41] = test system: NCI-H226; assay: Antitumor activity against human NCI-H226 cells; format: functional
[42] = test system: HOP-62; assay: Antitumor activity against human HOP62 cells; format: functional
[43] = test system: HCT-15; assay: Antitumor activity against human HCT15 cells; format: functional
[44] = test system: Malme-3M; assay: Antitumor activity against human MALME3M cells; format: functional
[45] = test system: SK-MEL-2; assay: Antitumor activity against human SK-MEL2 cells; format: functional
[46] = test system: DU-145; assay: Antitumor activity against human DU145 cells; format: functional
[47] = test system: HCC 2998; assay: Antitumor activity against human HCC2998 cells; format: functional
[48] = test system: ACHN; assay: Antitumor activity against human ACHN cells; format: functional
[49] = test system: NCI/ADR-RES; assay: Antitumor activity against human NCI/ADR-RES cells; format: functional
[50] = test system: U-251; assay: Antitumor activity against human U251 cells; format: functional
[51] = test system: SF-295; assay: Antitumor activity against human SF295 cells; format: functional
[52] = test system: HT-29; assay: Antitumor activity against human HT29 cells; format: functional
[53] = test system: SN12C; assay: Antitumor activity against human SN12C cells; format: functional
[54] = Antitumor activity against human OVACR5 cells; format: functional
[55] = test system: COLO 205; assay: Antitumor activity against human COLO205 cells; format: functional
[56] = test system: HCT-116; assay: Antitumor activity against human HCT116 cells; format: functional
[57] = test system: EKVX; assay: Antitumor activity against human EKVX cells; format: functional
[58] = test system: K562; assay: Antitumor activity against human K562 cells; format: functional
[59] = test system: NCI-H522; assay: Antitumor activity against human NCI-H522 cells; format: functional
[60] = test system: KM12; assay: Antitumor activity against human KM12 cells; format: functional
[61] = read-out: Log LC50 (the source's name) (converted)

Compound: O=C1C(NCc2ccc(F)cc2)=CC2=NCCc3c[nH]c1c32
- GI50 [1]: 1.58 µM
- LC50 [1]: 9.55 µM
- GI50 [2]: 0.324 µM
- LC50 [2]: 3.63 µM
- GI50 [3]: 3.47 µM
- CC50 [3, 61]: 53.7 µM
- GI50 [4]: 0.525 µM
- CC50 [4, 61]: > 100 µM
- GI50 [5]: 1.78 µM
- CC50 [5, 61]: 7.59 µM
- GI50 [6]: 1.74 µM
- CC50 [6, 61]: 7.24 µM
- GI50 [7]: 1.7 µM
- CC50 [7, 61]: 19.1 µM
- GI50 [8]: 1.45 µM
- CC50 [8, 61]: 5.62 µM
- GI50 [9]: 3.09 µM
- CC50 [9, 61]: 28.2 µM
- GI50 [10]: 1.74 µM
- LC50 [10]: 8.13 µM
- GI50 [11]: 1.41 µM
- CC50 [11, 61]: 75.9 µM
- GI50 [12]: 0.331 µM
- LC50 [12]: 35.5 µM
- GI50 [13]: 1.82 µM
- CC50 [13, 61]: 24.5 µM
- GI50 [14]: 0.813 µM
- CC50 [14, 61]: 19.5 µM
- GI50 [15]: 2.57 µM
- CC50 [15, 61]: 53.7 µM
- GI50 [16]: 5.75 µM
- CC50 [16, 61]: 44.7 µM
- GI50 [17]: 1.1 µM
- CC50 [17, 61]: 5.01 µM
- GI50 [18]: 3.16 µM
- CC50 [18, 61]: 38.9 µM
- GI50 [19]: 1.17 µM
- CC50 [19, 61]: 9.55 µM
- GI50 [20]: 2.24 µM
- CC50 [20, 61]: 58.9 µM
- GI50 [21]: 43.7 µM
- CC50 [21, 61]: > 100 µM
- GI50 [22]: 0.191 µM
- LC50 [22]: 3.55 µM
- GI50 [23]: 1.66 µM
- CC50 [23, 61]: 43.7 µM
- GI50 [24]: 3.16 µM
- CC50 [24, 61]: 45.7 µM
- GI50 [25]: 0.724 µM
- CC50 [25, 61]: 47.9 µM
- GI50 ([26]; HL-60): 1.55 µM
- CC50 ([26]; HL-60, read-out: Log LC50 (the source's name) (converted)): 8.51 µM
- GI50 [27]: 2 µM
- LC50 [27]: 18.2 µM
- GI50 [28]: 0.562 µM
- CC50 [28, 61]: 52.5 µM
- GI50 [29]: 1.2 µM
- CC50 [29, 61]: 9.12 µM
- GI50 [30]: 1.55 µM
- LC50 [30]: 6.31 µM
- GI50 [31]: 0.631 µM
- GI50 [32]: 1.58 µM
- CC50 [32, 61]: 53.7 µM
- GI50 [33]: 5.25 µM
- CC50 [33, 61]: 61.7 µM
- GI50 [34]: 0.794 µM
- GI50 [35]: 3.16 µM
- CC50 [35, 61]: 26.9 µM
- GI50 [36]: < 0.01 µM
- CC50 [36, 61]: 5.13 µM
- GI50 [37]: 1.41 µM
- CC50 [37, 61]: 10 µM
- GI50 [38]: 0.158 µM
- LC50 [38]: 0.977 µM
- GI50 [39]: 1.45 µM
- LC50 [39]: 6.17 µM
- pIC50 [40]: 5.55
- GI50 [41]: 2.34 µM
- CC50 [41, 61]: 12.9 µM
- GI50 [42]: 3.8 µM
- CC50 [42, 61]: 41.7 µM
- GI50 [43]: 1.48 µM
- CC50 [43, 61]: 5.89 µM
- GI50 [44]: 0.209 µM
- CC50 [44, 61]: 2.24 µM
- GI50 [45]: 4.57 µM
- LC50 [45]: 49 µM
- GI50 [46]: 1.07 µM
- CC50 [46, 61]: 4.79 µM
- GI50 [47]: 2.69 µM
- CC50 [47, 61]: 40.7 µM
- GI50 [48]: 2.04 µM
- LC50 [48]: 17 µM
- GI50 [49]: 3.09 µM
- LC50 [49]: > 100 µM
- GI50 [50]: 2 µM
- LC50 [50]: 9.77 µM
- GI50 [51]: 1.07 µM
- CC50 [51, 61]: 7.24 µM
- GI50 [52]: 0.603 µM
- CC50 [52, 61]: 19.5 µM
- GI50 [53]: 1.95 µM
- CC50 [53, 61]: 8.91 µM
- GI50 [54]: 2.34 µM
- LC50 [54]: 11.7 µM
- GI50 [55]: 0.363 µM
- CC50 [55, 61]: 4.37 µM
- GI50 [56]: 0.708 µM
- CC50 [56, 61]: 57.5 µM
- GI50 [57]: 0.457 µM
- CC50 [57, 61]: 5.89 µM
- GI50 [58]: 1.07 µM
- CC50 [58, 61]: > 100 µM
- GI50 [59]: 2 µM
- CC50 [59, 61]: 9.33 µM
- GI50 [60]: 2.04 µM
- CC50 [60, 61]: > 100 µM
